In US20250177386A1, “METHOD OF TREATMENT OF DEPRESSED PATIENTS WITH POOR COGNITION AND SELECTION OF OTHER PATIENTS BENEFITING FROM A BENZYLPIPERAZINE-AMINOPYRIDINE AGENT” (Alto Neuroscience, Inc., priority 2021, published 2025):

Experiments:
[1] = tested on: patients with major depression; conditions: total daily doses of 40 mg, 80 mg or 120 mg; 18 patients on active dose (ref. 10); cited from earlier work
[2] = tested on: patients having major depressive disorder; conditions: cited from earlier work
[3] = tested on: patients having major depressive disorder; experiment: Phase 2 clinical trial with NSI-189 (220 patients, SPCD design), retrospective analysis by baseline cognition; type: in vivo, human; conditions: for number needed to treat to achieve one more remission / odds ratio for drug response: 80 mg vs placebo; for odds ratio for drug response: remission at 6 weeks
Procedure: A subsequent Phase 2 study was then performed on 220 patients with major depression (11). In that study, patients were randomized to receive a total daily dose of 40 mg or 80 mg of NSI-189 or placebo in stage 1 of the clinical trial design. […] Treatment in either stage was given for six weeks. This design is termed a Sequential Parallel Clinical Design (SPCD), and is analyzed statistically by combining results in a pre-defined manner for outcomes differences between relevant groups (e.g., drug vs. placebo) in each of the stages individually. There are two depression outcome measures accepted by the United States Food and Drug Administration (FDA) for the evaluation of adults. See the June 2018 FDA draft guidance entitled “Major Depressive Disorder: Developing Drugs for Treatment.” These are the Montgomery-Asberg Depression Rating Scale (MADRS), which was the primary outcome in this study, as well as the Hamilton Depression Rating Scale (HDRS) which was a key secondary outcome measure. […] It was reported that any benefits of NSI-189 on depression and cognition are independent effects (27).
A retrospective analysis of the 220-patient phase 2 study of NSI-189 discussed above was performed. In the study, patients having major depressive disorder were randomized to receive a total daily dose of 40 mg or 80 mg of NSI-189 or placebo in stage 1 (first 6 weeks) of the clinical trial design. […] The remaining of patients continued on their treatment for stage 2 of the trial. Treatment in either stage was given for six weeks. Patients were eligible for study participation if they were between the ages of 18-60 years, with current major depressive disorder of at least 8 weeks duration according to the DSM-5, as diagnosed by the Structured Clinical Interview for the DSM-5 clinical trial version (SCID-5-CT) during the screen and remote assessment visits, and if they were scored at least 20 at screen, remote assessment, and baseline visits on the Montgomery-Asberg Depression Rating Scale (MADRS). The phase 2 study collected cognitive task performance data prior to treatment, and then again after both stage 1 and stage 2 of the treatment protocol. The purpose of doing so was to determine whether treatment with this compound results in improvement in cognitive functioning, as measured by a variety of behavioral measures.
Prior to the inventor's retrospective analysis, there was no consideration as to using behavioral measures to predict treatment outcome nor was there any analysis conducted to this effect. There was no consideration of using cognitive performance as a predictor but only as an outcome measure. […] The tasks in this battery included a simple reaction time (RT) task, a choice RT task, a one-back working memory task, and a visual learning task. Moreover, given the conversion to z-score, a composite cognitive task performance score could be computed by averaging the z-scores for each of the four tasks in the battery. Analyses focused on the MADRS primary outcome of the study, with supporting evidence subsequently produced by examining the HDRS key secondary outcome, as well as the CGI. Statistical analyses focused first on the complete trial (incorporating both stage 1 and stage 2 outcomes), using the SPCD analytic approach reported in the original study and thus aligned could be compared with the original statistical analysis plan. We used linear mixed models to predict change from baseline (at 2, 4, and 6 weeks) in clinical scores and included covariates for time, time x group, time x baseline MADRS and baseline MADRS. These covariates likewise were used in the original study, and thus results here can be compared with the all-comer results reported previously. Statistical significance was thus assessed on the primary outcome (MADRS change from baseline at 6 weeks across the SPCD design) and similar secondary outcomes (HDRS and CGI change from baseline at 6 weeks). […]

## CC(C)CCNc1ncccc1C(=O)N1CCN(Cc2ccccc2)CC1 [NSI-189, (4-benzylpiperazin-1-yl)-[2-(3-methylbutylamino)pyridin-3-yl]methanone]
[1]
  potential antidepressant efficacy: promising evidence
[2]; 40 mg dose, all-comers, not corrected for multiple comparisons
  effects on several secondary measures compared to placebo: nominally significant effects
[2]; 80 mg daily dose, entire study population (ref. 11)
  efficacy on any study measure: did not demonstrate efficacy
[2]; original all-comer analysis, 40 mg or 80 mg/day, full SPCD analysis or each stage alone (ref. 11)
  antidepressant efficacy on MADRS primary outcome and HDRS key secondary measure: failed to demonstrate any evidence of antidepressant efficacy
[3]; 40 mg or 80 mg/day, good cognition group (composite score above patient mean), p=0.25
  change in MADRS scores, either drug arm versus placebo: no significant differences
[3]; 40 mg/day, poor cognition group (cognitive composite score), p=0.39
  change in MADRS scores, 40 mg group versus placebo: not significant
[3]; 80 mg arm from stage 1, composite score, 12 weeks of treatment
  durability of MADRS benefit, poor cognition compared to good cognition patients: stable and consistent throughout all 12 weeks of treatment
[3]; all-comer sample, 6 weeks, stage 1
  number needed to treat to achieve one more remission: 19.6
[3]; all-comer sample, stage 1
  odds ratio for drug response: 1.3
[3]; poor cognition subpopulation, 6 weeks, stage 1
  number needed to treat to achieve one more remission: 3.2
[3]; poor cognition subpopulation, stage 1
  odds ratio for drug response: 4.7
[3]; 80 mg/day, choice RT task, lenient cutoff z=+0.5, p=0.12
  change in MADRS scores, 80 mg versus placebo: did not yield a significant effect
[3]; 80 mg/day, cognitively impaired patients, six weeks, both stages, items 1, 7, 8, 9
  Cohen's d effect size per MADRS item, 80 mg versus placebo: notable effects
[3]; 80 mg/day, good cognition patients, 6 weeks, stage 1, chi-square p=0.014 vs poor cognition
  remission rate (score of 10 or less on the MADRS): 12%
[3]; 80 mg/day, late-life depression (LLD) group, 50 years or older
  MADRS depression score improvement, 80 mg over placebo: greater with 80 mg over placebo
[3]; 80 mg/day, non-LLD group, younger than 50
  MADRS depression score improvement, 80 mg versus placebo: indistinguishable between the two arms
[3]; 80 mg/day, poor cognition based on choice RT task, p=0.008
  symptom change on the HDRS, 80 mg relative to placebo: robust and significant effect
[3]; 80 mg/day, poor cognition defined by choice RT task, SPCD p=0.005
  change in MADRS scores, 80 mg versus placebo: robust and significant improvement over placebo
[3]; 80 mg/day, poor cognition defined by choice RT, p=0.0002
  Clinical Global Impression (CGI) severity, 80 mg over placebo: robust and significant advantage
[3]; 80 mg/day, poor cognition defined by one-back working memory, SPCD p=0.08
  change in MADRS scores, 80 mg versus placebo: trend-level significance
[3]; 80 mg/day, poor cognition defined by simple RT task, SPCD p=0.09
  change in MADRS scores, 80 mg versus placebo: trend-level significance
[3]; 80 mg/day, poor cognition group (cognitive composite score below patient mean), SPCD analysis p=0.014, 6 weeks
  change in MADRS scores, 80 mg arm versus placebo: robust and statistically significant effect
[3]; 80 mg/day, poor cognition on choice RT task, cutoff z=0, p=0.007
  change in MADRS scores, 80 mg versus placebo: significant superiority over placebo
[3]; 80 mg/day, poor cognition on choice RT task, cutoff z=-0.5, p=0.009
  change in MADRS scores, 80 mg versus placebo: significant superiority over placebo
[3]; 80 mg/day, poor cognition patients (composite score), 6 weeks, stage 1, chi-square p=0.017 vs placebo
  remission rate (score of 10 or less on the MADRS): 47%
[3]; 80 mg/day, poor cognition patients (composite score), p=0.002
  Clinical Global Impression (CGI) severity, 80 mg versus placebo: significantly more effective than placebo
[3]; 80 mg/day, poor cognition patients (composite score), p=0.038
  symptom change on the HDRS, 80 mg over placebo: significantly greater efficacy
[3]; good cognition group, 6 weeks, stage 1
  benefit in terms of remission rate: No benefit
[3]; patients with poor self-reported cognition (CPFQ score >25)
  MADRS depression score, difference between treatment arms: no difference is seen between treatment arms
[3]; week 6, stage 1 and stage 2, poor cognition subpopulation relative to all-comer sample
  Cohen's d effect sizes (MADRS, HDRS, CGI), 80 mg versus placebo: effect sizes increase substantially
